Test results from EP2669288A1, “New monosaccharide derivatives and biological applications thereof” (L[…], priority 2012, dated 2013).
Structures can show the parent of a compound that is named as a salt.

Tests used:
[1] = target: GmhA of E. coli (Escherichia coli, UniProt P63224); test: Inhibition of the enzymatic activity of GmhA (luminescent assay); type: biochemical; settings: 2nM GmhA, 3µM sedoheptulose-7-phosphate, 3µM ATP, 50nM HldE; 30min pre-incubation
Experimental: Inhibition of the enzymatic activity of GmhA (luminescent assay):
The assay buffer "AB" contained 50 mM Hepes pH7.5, 1 mM MnCl2, 25 mM KCl, 0.012% Triton-X100 and 1mm dithiothreitol (DTT) and 0.1µM Myelin basic protein (MBP). The following components were added in a white polystyrene Costar plate up to a final volume of 30µL: 10µL inhibitor dissolved in DMSO/water 50/50, and 20µL GmhA of E. coli in AB. After 30min of pre-incubation at room temperature, 30µL of Substrates mix in AB were added in each well to a final volume of 60µL. This reaction mixture was then composed of 2nM GmhA, 3µM sedoheptulose-7-phosphate (Sigma), 3µM ATP (Sigma) and 50nM HldE of E. coli in assay buffer. After 30min of incubation at room temperature, 100µL of the revelation mix were added to a final volume of 160µL, including the following constituents at the respective final concentrations: 10000 light units/ml luciferase (Sigma), 20µM D-luciferin (Sigma), 100µM N-acetylcysteamine (Aldrich). Luminescence intensity was immediately measured on Luminoskan (Thermofischer) and converted into inhibition percentages. For IC50 determinations, the inhibitor was tested at 6 to 10 different concentrations, and the related inhibitions were fitted to a classical langmuir equilibrium model using XLFIT (IDBS).

[2] = target: HldE of E. coli (Escherichia coli, UniProt P76658); test: Inhibition of the enzymatic activity of HldE-K (luminescent assay on kinase activity); type: biochemical; settings: 3nM HldE, 0.2µM β-heptose-7-phosphate, 0.2µM ATP; 30min pre-incubation
Experimental: Inhibition of the enzymatic activity of HldE-K (luminescent assay on kinase activity):
The assay buffer "AB" contained 50 mM Hepes pH7.5, 1 mM MnCl2, 25 mM KCl, 0.012% Triton-X100 and 1mm dithiothreitol (DTT) and 0.1µM Myelin basic protein (MBP). The following components were added in a white polystyrene Costar plate up to a final volume of 30µL: 10µL inhibitor dissolved in DMSO/water 50/50, and 20µL HldE of E. coli in AB. After 30min of pre-incubation at room temperature, 30µL of Substrates mix in AB were added in each well to a final volume of 60µL. This reaction mixture was then composed of 3nM HldE, 0.2µM β-heptose-7-phosphate (custom synthesis) and 0.2µM ATP (Sigma) in assay buffer. After 30min of incubation at room temperature, 200µL of the revelation mix were added to a final volume of 260µL, including the following constituents at the respective final concentrations: 5000 light units/ml luciferase (Sigma), 30µM D-luciferin (Sigma), 100µM N-acetylcysteamine (Aldrich). Luminescence intensity was immediately measured on Luminoskan (Thermofischer) and converted into inhibition percentages. For IC50 determinations, the inhibitor was tested at 6 to 10 different concentrations, and the related inhibitions were fitted to a classical Langmuir equilibrium model using XLFIT (IDBS).

[3] = tested on: E. coli C7 LPS heptosylation; test: Inhibition of E. coli C7 LPS biosynthesis (LPS gel electrophoresis, silver staining); type: cell-based, E. coli C7 (018:K1:H7)
Experimental: Inhibition of E. coli C7 (018:K1:H7) LPS biosynthesis:
The inner core contains several heptose residues. An inhibitor of the LPS heptosylation pathway should therefore reduce dramatically the size of LPS from full-length to the so-called 'Re-LPS' limited to lipid A branched with 2 Kdo residues.
Bacterial culture: The effect of heptosylation inhibitors on E. coli LPS was assessed as described below. The compounds to be tested were prepared in deionised water/DMSO (50/50) solutions and added (25µL) in sterile culture microtubes. The strain used in this study was E. coli C7 (018:K1:H7). The bacteria were isolated on tryptic soy agar (TSA) over-night. […]
LPS extraction: Bacterial cultures were normalized via OD determination, pelleted and washed with 1ml Phosphate-Buffer-Saline (PBS). […] The resulting supernatant, containing LPS was finally analysed by SDS-PAGE electrophoresis. […]
Silver staining: Gels were incubated overnight in 5% acetic acid/40% ethanol/deionised water, treated by 1% periodic acid/5% acetic acid for 15min, washed 4 times for 10min in deionised water and finally incubated for 18min in the dark in a silver nitrate solution composed of 56ml NaOH 0.1N, 4ml ammoniac 33%, 45ml AgN03 5% (Tsai and Frasch) and 195 ml deionised water. […] Gels were finally washed in deionised water, numerized with a Samsung PL51 camera and analysed by ImageJ software. […]

[4] = tested on: E. coli C7 (018:K1:H7); test: Killing of the bacteria in culture with compound; type: cell-based; settings: at 1 mM
Experimental: Bacterial culture: The effect of heptosylation inhibitors on E. coli LPS was assessed as described below. The compounds to be tested were prepared in deionised water/DMSO (50/50) solutions and added (25µL) in sterile culture microtubes. The strain used in this study was E. coli C7 (018:K1:H7). The bacteria were isolated on tryptic soy agar (TSA) over-night. Isolated colonies were cultured in 10ml of Luria-Bertani medium (LB) at 37°C up to an optical density of typically 0.15. These exponentially growing bacteria were finally diluted to 5e5 cfu/ml and added in each well (225µL) for incubation with the compounds at 37°C for approximately 5 hours, up to an optical density of ≈0.2-0.4. Some test compounds e.g. phospho-sugars required Glucose-6-Phosphate (G6P, from Sigma) to be added in the culture medium in order to activate their active transport into the bacterial cytosol via the phospho-sugar transporter UhpT. This was achieved by adding in the culture tube 2.5µL of a 10mM water solution of G6P (100µM final concentration).

HldE of E. coli, sequence (P76658 whole entry): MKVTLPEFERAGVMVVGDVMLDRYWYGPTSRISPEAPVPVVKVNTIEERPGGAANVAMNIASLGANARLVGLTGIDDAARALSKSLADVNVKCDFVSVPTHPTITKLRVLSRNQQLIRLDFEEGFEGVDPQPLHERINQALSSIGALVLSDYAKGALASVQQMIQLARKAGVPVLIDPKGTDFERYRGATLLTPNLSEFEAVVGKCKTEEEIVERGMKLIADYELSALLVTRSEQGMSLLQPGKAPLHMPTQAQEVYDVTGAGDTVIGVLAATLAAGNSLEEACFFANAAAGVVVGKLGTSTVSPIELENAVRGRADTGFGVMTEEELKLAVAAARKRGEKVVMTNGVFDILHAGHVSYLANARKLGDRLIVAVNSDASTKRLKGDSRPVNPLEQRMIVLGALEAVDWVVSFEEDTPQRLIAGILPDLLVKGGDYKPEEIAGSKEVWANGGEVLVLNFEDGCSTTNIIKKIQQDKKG
GmhA of E. coli, sequence (P63224 whole entry): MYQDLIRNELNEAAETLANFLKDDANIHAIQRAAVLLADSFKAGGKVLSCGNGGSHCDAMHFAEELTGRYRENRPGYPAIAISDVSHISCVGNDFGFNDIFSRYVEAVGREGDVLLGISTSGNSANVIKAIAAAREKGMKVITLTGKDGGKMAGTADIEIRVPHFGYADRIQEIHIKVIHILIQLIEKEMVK

## 7-O-phosphate-D-glycero-D-gluco-2-deoxy-2-amino-1-deoxy-heptopyranoside hydrochloride [Example 1]
[1]
  IC50: < 100 µM
[2]
  IC50: < 100 µM

## N[C@H]1C(O)O[C@H]([C@H](O)COP(=O)(O)O)[C@@H](O)[C@@H]1O (stereo partly drawn) [Example 2, 7-O-phosphate-D-glycero-D-gluco-2-deoxy-2-amino-heptopyranoside hydrochloride]
[3]; in absence of G6P
  reducing LPS heptosylation: inactive
[3]; in the presence of 100 µM G6P, at concentrations < 1 mM
  inhibition of E. coli C7 LPS heptosylation: at least 50%
[1]
  IC50: < 100 µM
[2]
  IC50: < 100 µM
[4]
  killing of the bacteria: did not kill the bacteria
